Conditions: mouse, in vivo

half-life in blood: prolonged
Substance: Fe3O4

— patent US9169355B2, “Biocompatible agent for dispersing nanoparticles into an aqueous medium using mussel adhesive protein-mimetic polymer” (Hanwha Chemical Corporation, priority 2010, dated 2015)
